Data published in article doi:10.1101/2024.10.28.620768v1 (biorxiv, 2024).

Biological target: Cdr1 (Candida albicans, UniProt Q5ANA3)
Experiment: microscale thermophoresis, Alexa Fluor 647-labelled Cdr1, Hill fit
Type: binding

Cdr1, sequence (Q5ANA3 whole entry): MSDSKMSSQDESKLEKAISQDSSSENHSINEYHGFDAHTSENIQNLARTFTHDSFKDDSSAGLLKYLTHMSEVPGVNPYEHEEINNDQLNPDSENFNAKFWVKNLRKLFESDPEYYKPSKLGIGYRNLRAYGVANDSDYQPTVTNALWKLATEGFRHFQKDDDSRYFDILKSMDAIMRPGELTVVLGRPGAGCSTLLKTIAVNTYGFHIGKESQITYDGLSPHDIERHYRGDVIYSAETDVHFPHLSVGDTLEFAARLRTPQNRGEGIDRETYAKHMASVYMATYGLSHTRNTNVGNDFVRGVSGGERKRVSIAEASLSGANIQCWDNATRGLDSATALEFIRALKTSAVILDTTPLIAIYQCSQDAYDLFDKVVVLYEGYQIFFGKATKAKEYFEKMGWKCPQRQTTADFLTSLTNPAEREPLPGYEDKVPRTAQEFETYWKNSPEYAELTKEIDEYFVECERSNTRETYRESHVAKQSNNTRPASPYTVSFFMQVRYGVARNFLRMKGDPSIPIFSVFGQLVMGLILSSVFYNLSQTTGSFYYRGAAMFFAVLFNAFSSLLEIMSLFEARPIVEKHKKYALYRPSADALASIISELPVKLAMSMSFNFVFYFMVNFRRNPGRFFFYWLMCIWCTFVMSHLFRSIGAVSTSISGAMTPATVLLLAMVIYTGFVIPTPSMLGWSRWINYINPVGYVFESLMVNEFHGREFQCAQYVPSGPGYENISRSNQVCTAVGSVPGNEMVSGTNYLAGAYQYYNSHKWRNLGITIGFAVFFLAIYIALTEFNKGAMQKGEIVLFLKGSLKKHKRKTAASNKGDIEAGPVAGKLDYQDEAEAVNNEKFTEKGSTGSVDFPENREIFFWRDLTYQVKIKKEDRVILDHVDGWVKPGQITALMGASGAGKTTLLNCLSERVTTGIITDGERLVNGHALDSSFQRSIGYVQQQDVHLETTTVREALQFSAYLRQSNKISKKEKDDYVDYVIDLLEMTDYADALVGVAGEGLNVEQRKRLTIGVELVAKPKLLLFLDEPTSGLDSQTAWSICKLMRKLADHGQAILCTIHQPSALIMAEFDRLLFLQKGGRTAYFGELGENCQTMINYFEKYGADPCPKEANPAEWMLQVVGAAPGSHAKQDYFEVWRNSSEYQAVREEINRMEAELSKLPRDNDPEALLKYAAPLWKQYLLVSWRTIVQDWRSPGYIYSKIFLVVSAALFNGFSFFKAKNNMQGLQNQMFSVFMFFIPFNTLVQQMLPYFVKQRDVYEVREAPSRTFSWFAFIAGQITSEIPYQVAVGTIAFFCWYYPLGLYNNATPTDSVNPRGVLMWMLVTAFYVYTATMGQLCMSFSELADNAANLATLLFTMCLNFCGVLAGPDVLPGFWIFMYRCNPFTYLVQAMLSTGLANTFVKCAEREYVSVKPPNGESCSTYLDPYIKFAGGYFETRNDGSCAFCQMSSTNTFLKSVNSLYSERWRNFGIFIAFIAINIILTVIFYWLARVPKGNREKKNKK

Structure (SMILES) | Kd
O=C1OC2(c3cc(F)c(O)cc3Oc3cc(O)c(F)cc32)c2ccccc21 [Oregon Green 488] | 32.8 ± 8.2 µM
CCN=c1cc2oc3cc(NCC)c(C)cc3c(-c3ccccc3C(=O)OCC)c-2cc1C [Rhodamine 6G] | 59.8 ± 7.1 µM
